Reference: ChEMBL document CHEMBL3576858, “A natural product based DOS library of hybrid systems” (Eur J Med Chem, 2015)

Columns and labels:
Plasmodium falciparum [1] = experiment: Antiplasmodial activity against Plasmodium falciparum 3D7 infected in O positive erythrocytes assessed as inhibition of parasite growth at 10 uM by FACS-based assay; type: functional
Plasmodium falciparum [2] = experiment: Antiplasmodial activity against Plasmodium falciparum 3D7 infected in O positive erythrocytes assessed as inhibition of parasite growth at 50 uM by FACS-based assay; type: functional
HepG2 [3] = experiment: Cytotoxicity against human HepG2 cells at 10 uM after 24 hrs by MTT colorimetric assay; type: cell-based; settings: hepg2, 24 h
HepG2 [4] = experiment: Cytotoxicity against human HepG2 cells at 100 uM after 24 hrs by MTT colorimetric assay; type: cell-based; settings: hepg2, 24 h
HepG2 [5] = experiment: Cytotoxicity against human HepG2 cells at 1 uM after 24 hrs by MTT colorimetric assay; type: cell-based; settings: hepg2, 24 h
Plasmodium falciparum [6] = experiment: Antiplasmodial activity against Plasmodium falciparum 3D7 infected in O positive erythrocytes assessed as parasitemia at 50 uM after 48 hrs by FACS-based assay (reference value: 3.484%); type: functional
Plasmodium falciparum [7] = experiment: Antiplasmodial activity against Plasmodium falciparum 3D7 infected in O positive erythrocytes assessed as parasitemia at 50 uM after 24 hrs by FACS-based assay (reference value: 1.670%); type: functional
Plasmodium falciparum [8] = experiment: Antiplasmodial activity against Plasmodium falciparum 3D7 infected in O positive erythrocytes assessed as parasitemia at 50 uM after 36 hrs by FACS-based assay (reference value: 1.617%); type: functional
Plasmodium falciparum [9] = experiment: Antiplasmodial activity against Plasmodium falciparum 3D7 infected in O positive erythrocytes assessed as inhibition of parasite growth at 30 uM by FACS-based assay; type: functional
Plasmodium falciparum [10] = experiment: Antiplasmodial activity against Plasmodium falciparum 3D7 infected in O positive erythrocytes assessed as inhibition of parasite growth at 500 nM by FACS-based assay; type: functional
Plasmodium falciparum [11] = experiment: Antiplasmodial activity against Plasmodium falciparum 3D7 infected in O positive erythrocytes assessed as inhibition of parasite growth at 20 uM by FACS-based assay; type: functional
Plasmodium falciparum [12] = experiment: Antiplasmodial activity against Plasmodium falciparum 3D7 infected in O positive erythrocytes assessed as inhibition of parasite growth at 40 uM by FACS-based assay; type: functional
Plasmodium falciparum [13] = experiment: Antiplasmodial activity against Plasmodium falciparum 3D7 infected in O positive erythrocytes assessed as inhibition of parasite growth at 1 uM by FACS-based assay; type: functional

| SMILES | inhibition at 10 µM (Plasmodium falciparum [1]) [%] | inhibition at 50 µM (Plasmodium falciparum [2]) [%] | Activity (HepG2 [3]) [%] | Activity (HepG2 [4]) [%] | Activity (HepG2 [5]) [%] | Activity (Plasmodium falciparum [6]) [%] | Activity (Plasmodium falciparum [7]) [%] | Activity (Plasmodium falciparum [8]) [%] | inhibition at 30 µM (Plasmodium falciparum [9]) [%] | inhibition at 0.5 µM (Plasmodium falciparum [10]) [%] | inhibition at 20 µM (Plasmodium falciparum [11]) [%] | inhibition at 40 µM (Plasmodium falciparum [12]) [%] | inhibition at 1 µM (Plasmodium falciparum [13]) [%] |
| --- | --- | --- | --- | --- | --- | --- | --- | --- | --- | --- | --- | --- | --- |
| CN(C)C[C@@H]1Cc2ccccc2[C@@]2(C)CCC(=O)N12 | 1.92 | 12.7 | – | – | – | – | – | – | – | – | – | – | – |
| C[C@]12C[C@]3(C(=O)NCC3c3ccccc3)C(=O)N1[C@H](CO)Cc1ccccc12 (stereo not given in full) | – | – | -19 | -41 | -29 | – | – | – | – | – | – | – | – |
| C[C@]12C[C@@]3(C(=O)NCC3c3ccccc3)C(=O)N1[C@H](CO)Cc1ccccc12 (stereo not given in full) | – | – | – | – | – | 1.058 | 1.209 | 1.255 | – | – | – | – | – |
| C=CCC1(CC=C)C[C@]2(C)c3ccccc3C[C@@H](CO)N2C1=O | 2.27 | 3.1 | – | – | – | – | – | – | – | – | – | – | – |
| CN(C)C[C@@H]1Cc2ccccc2[C@@]2(C)C[C@]3(C(=O)Nc4cc(N)ccc43)C(=O)N12 | 6.54 | 82.3 | 5 | -36 | -23 | – | – | – | 53.9 | 0 | 34.6 | 62.5 | 2.88 |
| CCOC(=O)[C@]1(c2ccc([N+](=O)[O-])cc2[N+](=O)[O-])C[C@]2(C)c3ccccc3C[C@@H](CN(C)C)N2C1=O | 71.6 | 89.6 | – | – | – | 1.283 | 1.737 | 1.217 | 48.9 | 0 | 21.1 | 61.5 | 0 |
| CCOC(=O)[C@@]1(c2ccc([N+](=O)[O-])cc2[N+](=O)[O-])C[C@]2(C)c3ccccc3C[C@@H](CN(C)C)N2C1=O | 0.385 | 91.5 | – | – | – | 0.9355 | 1.421 | 1.571 | 52.9 | 0 | 48.1 | 66.5 | 5.77 |
| CN(C)C[C@@H]1Cc2ccccc2[C@@]2(C)C[C@@]3(C(=O)Nc4ccccc43)C(=O)N12 | 14.8 | 64.6 | -4 | -4 | -7 | – | – | – | 52.4 | 0.721 | 37 | 59.1 | 2.64 |
| C[C@]12CC3(CCCC3)C(=O)N1[C@H](CO)Cc1ccccc12 | 0.971 | 1.53 | -15 | 10 | -63 | 1.06 | 1.024 | 1.407 | – | – | – | – | – |
| COC(=O)C1(C(C[N+](=O)[O-])c2ccccc2)C[C@]2(C)c3ccccc3C[C@@H](CO)N2C1=O (mixture of isomers) | 1.21 | 1.9 | -3 | -55 | -45 | – | – | – | – | – | – | – | – |
| CN(C)C[C@@H]1Cc2ccccc2[C@@]2(C)C[C@@]3(C(=O)Nc4cc(N)ccc43)C(=O)N12 | 5.38 | 10.1 | -6 | -39 | -52 | – | – | – | – | – | – | – | – |
| CN(C)C[C@@H]1Cc2ccccc2[C@@]2(C)C[C@]3(C(=O)Nc4ccccc43)C(=O)N12 | 30.1 | 59.7 | 1 | -29 | -54 | – | – | – | 48.1 | 0 | 44.2 | 51.9 | 1.92 |
| CCOC(=O)C1C[C@]2(C)c3ccccc3C[C@@H](CN(C)C)N2C1=O (stereo not given in full) | 7.19 | 74.5 | – | – | – | – | – | – | – | – | – | – | – |
| C[C@]12CCC(=O)N1[C@H](CO)Cc1ccccc12 | 5.67 | 19.1 | – | – | – | – | – | – | – | – | – | – | – |
| C[C@]12CC3(CC=CC3)C(=O)N1[C@H](CO)Cc1ccccc12 | 1.8 | 2.13 | -24 | -155 | -5 | 0.9149 | 0.7444 | 1.161 | – | – | – | – | – |
